Source: ChEMBL document CHEMBL5104197, “Structure-Based Optimization of Coumestan Derivatives as Polyketide Synthase 13-Thioesterase(Pks13-TE) Inhibitors with Improved hERG Profiles for Mycobacterium tuberculosis Treatment” (J Med Chem, 2022)
In brackets after ≈: the same amount, converted by molar mass.

Legend:
[1] = test system: Polyketide synthase Pks13 (Mycobacterium tuberculosis (strain ATCC 25618 / H37Rv)), I6X8D2 [N1640K]; test: Binding affinity to Mycobacterium tuberculosis Pks13-TE N1640K mutant expressed in Escherichia coli BL21(DE3) pLysS assessed as change in melting temperature at 1:10 compound to protein ratio by nanoDSF thermal stability analysis
[2] = test system: Polyketide synthase Pks13 (Mycobacterium tuberculosis (strain ATCC 25618 / H37Rv)), I6X8D2 [N1640K]; test: Binding affinity to Mycobacterium tuberculosis Pks13-TE N1640K mutant expressed in Escherichia coli BL21(DE3) pLysS assessed as change in melting temperature at 1:5 compound to protein ratio by nanoDSF thermal stability analysis
[3] = test system: Polyketide synthase Pks13 (Mycobacterium tuberculosis (strain ATCC 25618 / H37Rv)), I6X8D2 [N1640S]; test: Binding affinity to Mycobacterium tuberculosis Pks13-TE N1640S mutant expressed in Escherichia coli BL21(DE3) pLysS assessed as change in melting temperature at 1:10 compound to protein ratio by nanoDSF thermal stability analysis
[4] = test system: Polyketide synthase Pks13 (Mycobacterium tuberculosis (strain ATCC 25618 / H37Rv)), I6X8D2 [N1640S]; test: Binding affinity to Mycobacterium tuberculosis Pks13-TE N1640S mutant expressed in Escherichia coli BL21(DE3) pLysS assessed as change in melting temperature at 1:5 compound to protein ratio by nanoDSF thermal stability analysis
[5] = test system: Mycobacterium tuberculosis; format: functional, Vero; settings: R506, 168 h, time 7 day
[6] = test system: Mycobacterium tuberculosis; format: functional, Vero; settings: V2475, 168 h, time 7 day
[7] = test system: Mycobacterium tuberculosis; format: functional, Vero; settings: TF274, 168 h, time 7 day
[8] = test system: Mycobacterium tuberculosis; format: functional, Vero; settings: KZN494, 168 h, time 7 day

Row | SMILES | ΔTm [1] [°C] | ΔTm [2] [°C] | ΔTm [3] [°C] | ΔTm [4] [°C] | MIC90 [5] [µg/mL] | MIC90 [6] [µg/mL] | MIC90 [7] [µg/mL] | MIC90 [8] [µg/mL]
1 | O=c1oc2cc(O)ccc2c2oc3ccc(O)c(CN4CCCCC4)c3c12 | 0.9 | 0.8 | 10.5 | 11.4 | – | – | – | –
2 | O=c1oc2cc(O)ccc2c2oc3ccc4c(c3c12)CN(C1CCCC1)CO4 | 0.1 | 0.3 | 10.9 | 10.1 | 0.0039 (≈ 0.0103 µM) | 0.0039 (≈ 0.0103 µM) | 0.0039 (≈ 0.0103 µM) | 0.0039 (≈ 0.0103 µM)
3 | O=c1oc2cc(O)ccc2c2oc3ccc(O)c(CN4CCC(F)CC4)c3c12 | 1 | 1.5 | 9.6 | 8.7 | 0.0625 (≈ 0.163 µM) | 0.125 (≈ 0.326 µM) | 0.0625 (≈ 0.163 µM) | 0.0625 (≈ 0.163 µM)
4 | O=c1oc2cc(O)ccc2c2oc3ccc4c(c3c12)CN(CC1CC1)CO4 | 0.1 | 0.2 | 9.3 | 8.6 | – | – | – | –
5 | O=c1oc2cc(O)ccc2c2oc3ccc(O)c(CN4CC[C@H](F)C4)c3c12 | – | – | 7.9 | 6.9 | – | – | – | –
6 | COc1ccc2c(c1)oc(=O)c1c2oc2ccc(O)c(CN3CCC(F)(F)CC3)c21 | – | – | 1.7 | 1.9 | – | – | – | –
